From patent US11007282B2, “Compositions for circulatory system visualization” (DICRONIS SAGL, priority 2015, dated 2021)

Assays:
[1] = in vivo; cited from earlier work
[2] = In vitro fluorescence quantification of PVP-ICG formulations (Kollidon 17 PF), microplate reader; details: λEx/Em 770/818 nm

n-fold increase of ICG fluorescence in presence of PVP compared to water solution ([2]; ICG 0.025 mg/mL, Kollidon 17 PF 0.25 g/mL (1:10'000)): 1.32 n-fold
n-fold increase of ICG fluorescence in presence of PVP compared to water solution ([2]; ICG 0.06 mg/mL, Kollidon 17 PF 0.25 g/mL (1:4'166)): 1.68 n-fold
n-fold increase of ICG fluorescence in presence of PVP compared to water solution ([2]; ICG 0.15 mg/mL, Kollidon 17 PF 0.25 g/mL (1:1'666)): 2.2 n-fold
SMILES: CC1(C)C(/C=C/C=C/C=C/C=C2\N(CCCCS(=O)(=O)O)c3ccc4ccccc4c3C2(C)C)=[N+](CCCCS(=O)(=O)[O-])c2ccc3ccccc3c21 [ICG, sodium 4-[2-[(1E,3E,5E,7Z)-7-[1,1-dimethyl-3-(4-sulfonatobutyl)benzo[e]indol-2-ylidene]hepta-1,3,5-trienyl]-1,1-imethylbenzo[e]-indol-3-ium-3-yl]butane-1-sulfonate]
route of excretion [1]: excreted exclusively in the bile
